Measured values as given in patent US11014905B2, “2,6-disubstituted pyridine derivative” (Sumitomo Dainippon Pharma Co., Ltd., priority 2017, dated 2021).

How the values were obtained:
[1] = Test 3-1: metabolic stability test of human liver microsome; type: in vitro ADME; conditions: human liver microsome 0.1 mg/mL, test compound 0.1 μmol/L, 37° C., 30 minutes
Procedure: Test 3-1: Metabolic Stability Test of Human Liver Microsome
(§1) The stability of the present compounds for human liver microsome metabolism was evaluated as mentioned below. The used human liver microsome was obtained from Xenontech. Human liver microsome, NADPH, and each test compound were mixed in 25 mmol/L phosphate buffer solution (pH 7.4) to adjust each concentration as shown below, and the mixture was incubated at 37° C. for 30 minutes. • human liver microsome: 0.1 mg/mL • NAPDH: 3.2 mmol/L • test compound: 0.1 μmol/L
(§2) The residual ratio of the test compound in each sample after the incubation for 30 minutes was measured with a LC-MS, and the metabolic stability of human liver microsome was calculated about each test compound with the following formula. Metabolic stability of human liver microsome(mL/min/mg protein)=−LN(residual ratio)/“reaction time”/“concentration of human liver microsome”

[2] = Test 3-2: metabolic stability test of human liver microsome; type: in vitro ADME; conditions: human liver microsome 0.5 or 1.0 mg/mL, test compound 0.1 μmol/L, 37° C., 30 minutes
Procedure: Test 3-2: Metabolic Stability Test of Human Liver Microsome
as §1, with “In order to evaluate the metabolic stability of human liver microsomes more precisely, the stability” for “The stability”, “evaluated with a suitable concentration of human liver microsome,” for “evaluated”, “microsome: 0.5 or 1.0” for “microsome: 0.1”
as §2

Wistar male rat = experiment: Test 9: microdialysis test (intracerebral monoamine release); type: in vivo; conditions: in the combination administration with sertraline or in single administration
Procedure: Test 9: Microdialysis Test
The effect of the present compound for the release amount of intracerebral monoamine was evaluated in a manner mentioned below.
8-Week-old Wistar male rat was fixed on a brain stereotaxic apparatus under anesthesia. The scalp was incised, the subcutaneous tissue was removed, the position of the bregma was measured, and the installation position of a guide cannula was calculated (the position of the orbitofrontal cortex which defined according to the brain stereotaxic coordinates of Paxinos & Watson (2.0 mm right, 4.2 mm anterior from bregma)). The skull was drilled with a dental drill at the installation position of the guide cannula, and an anchor screw was set about 1 cm posterior to the hole. The guide cannula was set and fixed with a dental cement, and then the scalp was sutured. The animal was released from the brain stereotaxic apparatus, and was moved back to the breeding cage. In the event of the test, the rat was put in an acrylic observable cage, and a dialysis probe was inserted along the guide cannula to connect to a free-moving tube. With an infusion pump, Ringer solution was perfused at 2 μL/min, and the dialysis solution was recovered at 20-minute intervals. […] The recovered dialysis solutions were analyzed with a HPLC-ECD system to determine the contents of norepinephrine (NE), dopamine (DA), and serotonin (5-HT).

human 5-HT1A receptor [3] = target: T1, human 5-HT1A receptor (Homo sapiens (Human), UniProt P08908); experiment: Test 2: binding activity to human 5-HT1A receptor ([3H] 8-OH-DPAT); conditions: CHO cell membrane fraction, read-out: 5-HT1A binding affinity (Ki value)
Procedure: (§3) Test 2: Evaluation of Binding Activity to Human 5-HT1A Receptor, Human D4 Receptor, and Human D2 Receptor
(§4) CHO cell membrane fraction in which human 5-HT1A receptor, human D4 receptor, and human D2 receptor were expressed was purchased from PerkinElmer Co., Ltd. In the evaluation test of binding, the test compound dissolved in DMSO, each receptor membrane preparation diluted with buffer solution, and [3H] […] The nonspecific binding to each receptor was evaluated by a competition binding experiment in the presence of 10 μmol/L 8-OH-DPAT, 10 μmol/L dopamine, or 10 μmol/L spiperone, respectively.

human D4 receptor [4] = target: T2, human D4 receptor (Homo sapiens (Human), UniProt P21917); experiment: Test 2: binding activity to human D4 receptor ([3H] dopamine); conditions: CHO cell membrane fraction, read-out: D4 binding affinity (Ki value)
Procedure: as §3, §4

human D2 receptor = human D2 receptor (Homo sapiens (Human), UniProt P14416); experiment: Test 2: binding activity to human D2 receptor ([3H] spiperone); conditions: CHO cell membrane fraction, read-out: D2 binding affinity (Ki value)
Procedure: as §3, §4

hERG channel = hERG channel (Homo sapiens (Human), UniProt Q12809); experiment: Test 5-2: activity for inhibiting hERG channel (whole-cell patch clamp, Qube); type: cell-based; conditions: hERG-CHO cell, auto patch clamp, read-out: hERG inhibition IC50
Procedure: Test 5-2: Evaluation of Activity for Inhibiting hERG Channel
The activity of the present compound for inhibiting hERG channel was measured by whole-cell patch clamp method with auto patch clamp system, using CHO cell wherein hERG channel involved in human rapidly activating delayed rectifier potassium current (IKr) was forcibly expressed.
hERG-CHO cell purchased from ChanTest was incubated at 37° C. in a CO2 incubator, and the cell was exfoliated from the flask with trypsin to prepare a cell suspension, shortly before the hERG current measurement.
Extracellular fluid: 2 mmol/L CaCl2, 1 mmol/L MgCl2, 10 mmol/L HEPES, 4 mmol/L KCl, 145 mmol/L NaCl, 10 mmol/L glucose
Intracellular fluid: 10 mmol/L HEPES, 10 mmol/L EGTA, 20 mmol/L KCl, 130 mmol/L KF […]
The cell suspension, the extracellular fluid, the intracellular fluid, and the measurement plate were set in an auto patch clamp system, and the hERG current was measured by whole-cell patch clamp method. […] The test was carried out applying increscently 4 concentrations of each test compound, and the average of the peak tail currents that were obtained by the last 3 stimulations in each applied concentration was made to be the evaluated data. By using the current inhibition rate for the pre-applied current at each concentration of each test compound, IC50 value was calculated by Hill equation with the software.

human 5-HT1A receptor [5] = target: T1, human 5-HT1A receptor; experiment: Test 1: agonistic activity for human 5-HT1A receptor (aequorin luminescence, CHO-K1); type: cell-based; conditions: for EC50: CHO-K1 cell transiently expressing aequorin, Ga16 and receptor
Procedure: (§5) Test 1: Evaluation of Agonistic Activity for Human 5-HT1A Receptor and Human D4 Receptor
(§6) Aequorin, Ga16 proteins, and each receptor were transiently expressed in CHO-K1 cell (Chinese hamster ovary), and seeded to 384-well plate. The plate was incubated in a CO2 incubator at 37° C. for 24 hours. Each example compound dissolved in DMSO was added thereto, and the change of luminescence amount was measured with Hamamatsu FDSS/μCELL System (Hamamatsu Photonics).

human D4 receptor [6] = target: T2, human D4 receptor; experiment: Test 1: agonistic activity for human D4 receptor (aequorin luminescence, CHO-K1); type: cell-based; conditions: for EC50: CHO-K1 cell transiently expressing aequorin, Ga16 and receptor
Procedure: as §5, §6

[7] = CHO-K1, 100% = 10 μmol/L endogenous ligand
[8] = 100% = 10 μmol/L endogenous ligand

T2 sequence (P21917 whole entry): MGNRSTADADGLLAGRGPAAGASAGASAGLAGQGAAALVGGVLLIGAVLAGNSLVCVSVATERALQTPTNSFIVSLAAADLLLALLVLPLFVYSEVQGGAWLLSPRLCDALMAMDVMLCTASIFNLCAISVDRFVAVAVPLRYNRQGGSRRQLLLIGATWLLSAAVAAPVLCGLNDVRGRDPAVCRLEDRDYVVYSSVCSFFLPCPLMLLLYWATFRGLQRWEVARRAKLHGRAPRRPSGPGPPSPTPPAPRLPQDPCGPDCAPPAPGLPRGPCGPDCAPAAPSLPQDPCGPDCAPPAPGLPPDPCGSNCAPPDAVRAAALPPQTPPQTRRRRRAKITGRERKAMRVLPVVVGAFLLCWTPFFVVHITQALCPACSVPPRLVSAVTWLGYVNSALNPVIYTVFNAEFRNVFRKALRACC
T1 sequence (P08908 whole entry): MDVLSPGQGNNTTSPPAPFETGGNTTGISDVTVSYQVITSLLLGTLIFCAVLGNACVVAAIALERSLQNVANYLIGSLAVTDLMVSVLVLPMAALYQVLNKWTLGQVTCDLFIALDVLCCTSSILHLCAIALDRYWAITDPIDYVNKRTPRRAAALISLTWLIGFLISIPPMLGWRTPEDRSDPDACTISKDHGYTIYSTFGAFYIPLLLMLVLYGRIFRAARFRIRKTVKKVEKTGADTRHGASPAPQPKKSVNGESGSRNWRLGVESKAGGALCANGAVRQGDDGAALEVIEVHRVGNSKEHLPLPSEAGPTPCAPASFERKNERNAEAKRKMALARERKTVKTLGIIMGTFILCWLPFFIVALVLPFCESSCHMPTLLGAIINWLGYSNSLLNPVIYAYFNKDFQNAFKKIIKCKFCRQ
human D2 receptor, sequence (P14416 whole entry): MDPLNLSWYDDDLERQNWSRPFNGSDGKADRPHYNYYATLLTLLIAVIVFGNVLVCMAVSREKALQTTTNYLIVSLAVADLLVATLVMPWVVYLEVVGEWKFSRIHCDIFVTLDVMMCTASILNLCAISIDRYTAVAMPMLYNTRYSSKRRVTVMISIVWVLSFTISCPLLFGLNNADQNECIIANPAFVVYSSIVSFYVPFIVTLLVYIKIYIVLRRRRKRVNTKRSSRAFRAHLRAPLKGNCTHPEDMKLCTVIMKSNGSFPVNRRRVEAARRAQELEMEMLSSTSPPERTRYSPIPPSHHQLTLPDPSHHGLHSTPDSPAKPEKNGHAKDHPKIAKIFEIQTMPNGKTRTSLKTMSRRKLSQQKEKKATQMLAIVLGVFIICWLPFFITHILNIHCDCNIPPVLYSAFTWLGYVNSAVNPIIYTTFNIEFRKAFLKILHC
hERG channel, sequence (Q12809 whole entry): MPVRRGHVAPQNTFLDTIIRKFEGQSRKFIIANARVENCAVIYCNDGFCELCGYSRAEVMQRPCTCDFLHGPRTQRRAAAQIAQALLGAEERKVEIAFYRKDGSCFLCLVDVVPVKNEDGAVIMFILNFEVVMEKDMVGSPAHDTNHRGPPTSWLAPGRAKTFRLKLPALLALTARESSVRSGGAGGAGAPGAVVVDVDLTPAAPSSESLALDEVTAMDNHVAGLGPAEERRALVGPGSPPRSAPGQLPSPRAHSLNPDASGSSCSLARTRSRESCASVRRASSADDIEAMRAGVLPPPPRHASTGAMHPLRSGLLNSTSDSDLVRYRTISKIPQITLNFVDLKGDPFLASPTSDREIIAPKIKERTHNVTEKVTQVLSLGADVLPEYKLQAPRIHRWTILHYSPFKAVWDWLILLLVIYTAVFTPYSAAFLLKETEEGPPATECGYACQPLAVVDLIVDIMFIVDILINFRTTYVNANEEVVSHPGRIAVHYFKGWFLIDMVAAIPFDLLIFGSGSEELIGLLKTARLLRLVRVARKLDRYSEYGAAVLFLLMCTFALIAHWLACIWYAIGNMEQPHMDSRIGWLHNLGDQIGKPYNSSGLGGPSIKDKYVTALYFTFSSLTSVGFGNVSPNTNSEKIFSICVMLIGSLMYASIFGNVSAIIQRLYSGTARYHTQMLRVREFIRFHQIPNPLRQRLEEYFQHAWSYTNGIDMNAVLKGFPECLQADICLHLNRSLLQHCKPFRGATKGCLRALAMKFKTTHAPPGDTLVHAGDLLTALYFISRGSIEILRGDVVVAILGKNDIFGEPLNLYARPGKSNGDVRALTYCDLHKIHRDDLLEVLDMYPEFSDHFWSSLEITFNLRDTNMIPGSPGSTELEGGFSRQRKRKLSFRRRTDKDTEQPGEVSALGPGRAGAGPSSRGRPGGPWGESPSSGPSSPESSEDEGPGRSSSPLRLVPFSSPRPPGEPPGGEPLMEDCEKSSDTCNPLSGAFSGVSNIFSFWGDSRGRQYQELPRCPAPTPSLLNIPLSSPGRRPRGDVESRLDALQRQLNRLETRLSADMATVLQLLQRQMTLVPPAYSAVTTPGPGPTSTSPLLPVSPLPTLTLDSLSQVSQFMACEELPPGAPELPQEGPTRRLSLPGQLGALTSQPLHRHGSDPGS

O=C(NCCN1CCC(c2cccc(C(F)(F)F)n2)CC1)C1CCC(F)(F)CC1 [Example 1, 4,4-Difluoro-N-(2-{4-[6-(trifluoromethyl)pyridin-2-yl]piperidin-1-yl}ethyl)cyclohexane-carboxamide]
Metabolic stability of human liver microsome [1]: 0.073 mL/min/mg protein
Metabolic stability of human liver microsome [2]: 0.031 mL/min/mg protein

O=C(NCCN1CCC(c2cccc(C(F)(F)F)n2)CC1)C1CCCOC1 (stereo not shown) [Example 2]
Metabolic stability of human liver microsome [1]: 0.069 mL/min/mg protein

Cc1cccc(C2CCN(CCNC(=O)C3CC4CCC3O4)CC2)n1 (stereo not shown) [Example 3]
Metabolic stability of human liver microsome [1]: <0.01 mL/min/mg protein

Cc1cccc(C2CCN(CCNC(=O)C3CCC(F)(F)CC3)CC2)n1 [Example 4]
Metabolic stability of human liver microsome [1]: <0.01 mL/min/mg protein

COCC(C)(C)C(=O)NCCN1CCC(c2cccc(C)n2)CC1 [Example 5]
Metabolic stability of human liver microsome [1]: <0.01 mL/min/mg protein

COCC(C)(C)C(=O)NCCN1CCC(c2cccc(C(F)(F)F)n2)CC1 [Example 6]
Metabolic stability of human liver microsome [1]: <0.01 mL/min/mg protein

Cc1cccc(C2CCN(CCNC(=O)C3CCOCC3)CC2)n1 [Example 8, N-{2-[4-(6-Methylpyridin-2-yl)piperidin-1-yl]ethyl}-tetrahydro-2H-pyran-4-carboxamide]
Metabolic stability of human liver microsome [1]: 0.017 mL/min/mg protein
Metabolic stability of human liver microsome [2]: 0.023 mL/min/mg protein

CC(C)(C)C(=O)NCCN1CCC(c2cccc(C(F)(F)F)n2)CC1 [Example 9, 2,2-dimethyl-N-(2-{4-[6-(trifluoromethyl)pyridin-2-yl]piperidin-1-yl}ethyl)propanamide]
Metabolic stability of human liver microsome [1]: 0.025 mL/min/mg protein
Metabolic stability of human liver microsome [2]: 0.016 mL/min/mg protein

Cc1cccc(C2CCN(CCNC(=O)C(C)(C)C)CC2)n1 [Example 10]
Metabolic stability of human liver microsome [1]: 0.015 mL/min/mg protein

O=C(NCCN1CCC(c2cccc(C(F)(F)F)n2)CC1)C1CCOCC1 [Example 11, N-(2-{4-[6-(Trifluoromethyl)pyridin-2-yl]piperidin-1-yl}ethyl)-tetrahydro-2H-pyran-4-carboxamide]
Metabolic stability of human liver microsome [2]: 0.0075 mL/min/mg protein
effect on serotonin content (Wistar male rat): did not decrease the serotonin content

Cc1cccc(C2=CCN(CCNC(=O)[C@H]3C[C@@H]4CC[C@H]3O4)CC2)n1 [Example 13]
Metabolic stability of human liver microsome [1]: <0.05 mL/min/mg protein

Cc1cccc(C2=CCN(CCNC(=O)C3CCC(F)(F)CC3)CC2)n1 [Example 14]
Metabolic stability of human liver microsome [1]: 0.084 mL/min/mg protein

Cc1cccc(C2CCN(CCNC(=O)C3CCCOC3)CC2)n1 (stereo not shown) [Example 15]
Metabolic stability of human liver microsome [1]: <0.05 mL/min/mg protein

O=C(NCCN1CC=C(c2cccc(C(F)(F)F)n2)CC1)C1CCCOC1 (stereo not shown) [Example 16, N-{2-[6-(Trifluoromethyl)-3′,6′-dihydro[2,4′-bipyridin]-1′(2′H)-yl]ethyl}-tetrahydro-2H-pyran-3-carboxamide]
Metabolic stability of human liver microsome [1]: <0.05 mL/min/mg protein

COCC(C)(C)C(=O)NCCN1CC=C(c2cccc(C(F)(F)F)n2)CC1 [Example 18]
Metabolic stability of human liver microsome [1]: <0.05 mL/min/mg protein

Cc1cccc(C2CCN(CCNC(=O)C3CCCCO3)CC2)n1 (stereo not shown) [Example 20]
Metabolic stability of human liver microsome [1]: <0.05 mL/min/mg protein
Ki (human 5-HT1A receptor [3]): 6.8 nM
Ki (human D4 receptor [4]): 92 nM
Ki (human D2 receptor): > 10000 nM
IC50 (hERG channel): > 10000 nM
Emax (human 5-HT1A receptor [5]; [7]): 40%
EC50 (human 5-HT1A receptor [5]): 57 nM
Emax (human D4 receptor [6]; [7]): 60%
EC50 (human D4 receptor [6]): 15 nM

O=C(NCCN1CCC(c2cccc(C(F)(F)F)n2)CC1)[C@H]1C[C@@H]2CC[C@H]1O2 [Example 21]
Metabolic stability of human liver microsome [1]: <0.05 mL/min/mg protein

O=C(NCCN1CCC(c2cccc(C(F)(F)F)n2)CC1)C1CCOC1 (stereo not shown) [Example 25]
Metabolic stability of human liver microsome [1]: <0.05 mL/min/mg protein
Ki (human 5-HT1A receptor [3]): 20 nM
Ki (human D2 receptor): 3330 nM
IC50 (hERG channel): > 10000 nM
5-HT1A agonistic activity Emax (human 5-HT1A receptor [5]; [8]): 46%
EC50 (human 5-HT1A receptor [5]): 67 nM
D4 agonistic activity Emax (human D4 receptor [6]; [8]): 49%
EC50 (human D4 receptor [6]): 30 nM

O=C(NCCN1CCC(c2cccc(OC(F)(F)F)n2)CC1)C1CCOCC1 [Example 28]
Metabolic stability of human liver microsome [1]: <0.05 mL/min/mg protein

Cc1cccc(C2=CCN(CCNC(=O)C3CCOCC3)CC2)n1 [Example 29, N-[2-(6-Methyl-3′,6′-dihydro[2,4′-bipyridin]-1′(2′H)-yl)ethyl]-tetrahydro-2H-pyran-4-carboxamide]
Metabolic stability of human liver microsome [1]: <0.05 mL/min/mg protein

CC(C)(C)C(=O)NCCN1CC=C(c2cccc(C(F)(F)F)n2)CC1 [Example 31, 2,2-Dimethyl-N-{2-[6-(trifluoromethyl)-3′,6′-dihydro[2,4′-bipyridin]-1′(2′H)-yl]ethyl}propanamide]
Metabolic stability of human liver microsome [1]: <0.05 mL/min/mg protein

COc1cccc(C2CCN(CCNC(=O)C3CCOCC3)CC2)n1 [Example 33]
Metabolic stability of human liver microsome [1]: <0.05 mL/min/mg protein

O=C(NCCN1CCC(c2cccc(C(F)F)n2)CC1)C1CCOCC1 [Example 34]
Metabolic stability of human liver microsome [1]: <0.05 mL/min/mg protein

CN(C)c1cccc(C2CCN(CCNC(=O)C3CCOCC3)CC2)n1 [Example 38, N-(2-{4-[6-(Dimethylamino)pyridin-2-yl]piperidin-1-yl}ethyl)-tetrahydro-2H-pyran-4-carboxamide]
Metabolic stability of human liver microsome [1]: <0.05 mL/min/mg protein
